Measurements as given in PubChem BioAssay AID179 (DTP/NCI, 2004).
Several values for one entry are separate records, joined by “and”; a condition that tells them apart may be missing. Equal values may be shown once. Activity calls are given as the source filed them.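 How the source made its calls: active means compounds giving half or more protection of infected cells from virus-caused growth loss, again on retest; inactive means the rest.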 Where a SMILES comes first, the peptide text is derived from it. Bridges are numbered along the chain shown (N, C = ends). The star is where a group is joined. Cbz = O=C(OCc1ccccc1)*

Tested on: CEM cells HIV-1 protection, formazan growth assay
Test: NCI AIDS Antiviral Assay
Settings: for IC50: measured here: growth of uninfected CEM cells
How it was run: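 Screen of anti-HIV-1 activity in human CEM cells using a formazan-based growth measurement at five drug concentrations. Hits with 50% or greater protection were repeated, and confirmation required reproducible complete protection.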

| SMILES | outcome | EC50 | IC50 |
| --- | --- | --- | --- |
| O=c1[nH]ccc2c1ccn2C1CC(O)C(CO)O1 (stereo not drawn) | inactive | – | – |
| Cc1cccc(NC(=S)NC(=O)c2ccccc2)n1 | – | > 200 µM | > 200 µM |
| NC(Cc1c[nH]c2ccccc12)P(=O)(O)O (stereo not drawn) | – | > 200 µM | > 200 µM |
| CCN(CC)C1=Nc2ccccc2-n2c(C)cnc2C1 | – | > 200 µM | > 200 µM |
| O=C(Oc1ccccc1)N(CCO)C(c1ccccc1)C(O)c1ccccc1 (stereo not drawn) | – | > 200 µM | 5.25 µM |
| S=C(S)N1CCCCC1 | – | > 200 µM | – |
| CC1(C)OC2C(=O)O[C@H](CO)C2O1 (stereo partly drawn) | – | > 200 µM | > 200 µM |
| c1ccc2c(c1)[nH]c1cnc3c4cccnc4[nH]c3c12 | – | > 135 µM | 12.6 µM |
| N#C/C(=C\c1ccc(-c2ccccc2)cc1)c1ccc([N+](=O)[O-])cc1 | – | > 200 µM | > 200 µM |
| CCN=C(NC(=O)c1ccc(Cl)cc1)SCSC(=NCC)NC(=O)c1ccc(Cl)cc1 | – | > 200 µM | 72.4 µM |
| CCN1CCC(O)(c2ccc(Cl)cc2)C(C(=O)c2ccc(Cl)cc2)C1 (stereo not drawn) | inactive | – | – |
| CC12CCC3[C@@H](CC3(C)C)C(O)(CCC1=O)C2 (stereo partly drawn) | – | > 200 µM | > 200 µM |
| O=C1NN=C(c2ccc(Cl)cc2)CC1C1C(=O)N(c2ccccc2)N=C1c1ccccc1 (stereo not drawn) | – | > 100 µM | 49 µM |
| CC(C)=CCCc1c(C)ccc2c1C(=O)C(=O)C(C(C)C)=C2O | – | > 57.5 µM | 33.9 µM |
| O=C(CC1(O)C(=O)Nc2c(Cl)cc(Cl)cc21)c1ccc([N+](=O)[O-])cc1 (stereo not drawn) | – | > 178 µM | 93.3 µM |
| O=C(/C=C/c1ccccc1)Oc1cccc(O)c1 | – | > 200 µM | 5.01 µM |
| COc1ccc(C2c3cc(O)c(OC)cc3Oc3cc(OC)c(O)cc32)cc1 | – | > 200 µM | 8.51 µM |
| N#CC1=C2Oc3ccccc3N2C(c2ccccc2)C(C#N)=C1N (stereo not drawn) | – | > 200 µM | > 200 µM |
| CN(C)CCCC12CCCCC1=Nc1ccccc12 (stereo not drawn) | – | > 200 µM | 7.76 µM |
| O=C(O)c1ccc(Sc2ccccc2)cc1 | – | > 200 µM | > 200 µM |
| N#Cc1c(/N=C/c2cc(Cl)cc(Cl)c2O)sc2c1CCC2 | – | > 200 µM | > 200 µM |
| CCOP(=O)(C/C(=N/NC(C)(C)C)C(=O)Nc1nc2ccc(C)cc2s1)OCC | – | > 58.9 µM | > 58.9 µM |
| O=c1[nH]c2ccccc2c(O)c1/C=N/C(=S)NCc1ccccc1 | – | > 200 µM | > 200 µM |
| Cc1ccc(N=NN(C)C)cc1NC(=O)NCC(=O)OC(C)(C)C | – | > 200 µM | 107 µM |

| SMILES | outcome | EC50 | IC50 |
| --- | --- | --- | --- |
| C=C(CCOC)CCC1CCCCC(=C)[C@H]1O (stereo partly drawn) | – | > 200 µM | > 200 µM |
| CCCCN(Cc1ccccc1)C(=NC#N)N(Cc1ccccc1)Cc1ccccc1 | – | > 4.9 µM | > 4.9 µM |
| c1ccc(N=C(N2CCCC2)N(CCN2CCCC2)c2ccccc2)cc1 | – | > 200 µM | 9.33 µM |
| C[N+](C)(C)CC(=O)N/N=C(\CCC(=O)NCCc1ccccc1)CC(=O)c1ccccc1 | inactive | – | – |
| COC(=O)C1CCCCNC(=O)CCC(NC(=O)OCc2ccccc2)C(=O)N1 (stereo not drawn) (Cbz-Glu-Lys-OMe; lactam 1-2; configuration not given here) | – | > 200 µM | > 200 µM |
| N=c1ccn2c(n1)OC1C(O)C(CO)OC12 (stereo not drawn) | – | 37.2 µM and > 2 µM | – |
| Fc1cccc2c(=S)cn[nH]c12 | – | > 200 µM | 186 µM |
| O=c1ccc2c(cc3ccc4cccc5ccc2c3c45)o1 | inactive | – | – |
| COc1cc(Oc2nc3c(N)cc(C(F)(F)F)cc3nc2-c2ccccc2)cc(OC)c1OC | – | > 20 µM | 14.1 µM |
| Clc1ccc(C2=NOC3C4CCC(C4)C23)cc1 (stereo not drawn) | inactive | – | – |
| CN(C)c1ccc(/C=C/C(=O)c2ccccc2)cc1Br | – | > 15.8 µM | > 15.8 µM |
| C=C1C(C(=O)OC)[C@H]1C(=O)OC (stereo partly drawn) | – | 5.5 µM | > 200 µM |
| NC(=O)c1cccc([C@@H]2O[C@H](CO)[C@@H](O)[C@H]2O)c1 | – | > 977 µM | 5.37 µM |
| CSc1snc2sc3c(Cl)nnnc3c12 | inactive | – | – |
| Cc1cc(Nc2ccc(N=Nc3ccc(O)c4ncccc34)cc2)nc(C)n1 | – | > 200 µM | 6.46 µM |
| Cc1ccccc1N(CCC#N)C1=NN(C(=O)CC(=O)Nc2ccc(Cl)cc2)C(c2ccccc2)C1 (stereo not drawn) | – | > 501 µM | > 501 µM |
| Nc1c(C(=O)O)sc2ncccc12 | – | 141 µM | 219 µM |
| Fc1cccc(C2SCc3nc4ccccc4n32)c1F (stereo not drawn) | inactive | – | – |
| O=S(=O)(O)C(O)/C=C/c1ccccc1 (stereo not drawn) | inactive | – | – |
| O=C1N=CC2(N=N2)C(=O)N1 | – | > 200 µM | 15.5 µM |
| CCOC(=O)C(C)(c1c(C)n(C)c2ccccc12)c1c(C)n(C)c2ccccc12 | – | > 200 µM | > 100 µM |
| O=[N+]([O-])C(=C1NCCN1)C(Cl)=C(Cl)Cl | – | > 200 µM | > 200 µM |
| Cc1cc(-c2ccco2)oc(=O)c1NC(=O)c1ccccc1 | – | > 200 µM | 25.1 µM |
| CCOC(=O)C(=O)/C(=C/N1CCNC1=S)C(=O)OCC | inactive | – | – |

| SMILES | outcome | EC50 | IC50 |
| --- | --- | --- | --- |
| COc1cc2c(cc1OC)[N+]1(C)CCC3OCCC4C[N+]5(C)CCC26C5CC4C3C61 (stereo not drawn) | – | > 372 µM | > 372 µM |
| COc1nc(NC2OCC(O)C(O)C2O)cc(=O)n1C (stereo not drawn) | inactive | – | – |
| CCCc1ccc(N=Cc2cc(OC)c(OC)c(OC)c2)cc1 | – | > 31.6 µM | > 31.6 µM |
| Cc1ccc2c(c1)-c1c3c(nn1-c1ccccc1)-c1ccccc1SC3O2 (stereo not drawn) | – | > 3.89 µM | > 3.89 µM |
| O=C(O)C1(C(=O)O)CC1 | inactive | – | – |
| COc1cc2c(cc1O)C(CSC)Cc1cc3c(cc1N(C)CC2)OCO3 (stereo not drawn) | – | > 148 µM | 12 µM |
| C[N+](C)(CCNC(=O)c1cccc2cc3ccccc3nc12)Cc1ccc([N+](=O)[O-])cc1 | – | > 200 µM | 97.7 µM |
| CC(=O)OCC1OC(n2c(N)c(C#N)c(C)c(C#N)c2=S)C(OC(C)=O)C(OC(C)=O)C1OC(C)=O (stereo not drawn) | – | 145 µM and 162 µM | > 200 µM |
| C/C(N=NS(=O)(=O)c1ccccc1)=C1\C=CC=CN1O | inactive | – | – |
| CC(=O)Nc1ccc(C(=O)NN2C(=O)C(Cl)C2c2ccccc2O)cc1 (stereo not drawn) | – | > 200 µM | 31.6 µM |
| NC1=NC(=O)[C@H](CSCc2ccccc2)N1C(=O)OCc1ccccc1 | – | > 200 µM | > 200 µM |
| COc1ccc(C2Oc3c(cccc3OC)C=C2[N+](=O)[O-])cc1OC (stereo not drawn) | – | > 200 µM | 1.2 µM |
| COc1ccc2nc3cc([N+](=O)[O-])ccc3c(Nc3ccc(S(=O)(=O)Nc4ncccn4)cc3)c2c1 | – | > 200 µM | 102 µM |
| O=C(O)c1nc(-c2ccccc2)ncc1-c1nnnn1-c1ccccc1 | – | > 200 µM | > 200 µM |
| S=c1[nH]nc(CNc2ccc(-c3n[nH]c(=S)n3-c3ccc(Cl)cc3)cc2)n1-c1ccc(Cl)cc1 | – | > 200 µM | 31.6 µM |
| COC(=O)Cc1cc(=O)oc2c1C(=O)CCC2 | inactive | – | – |
| O=C1OC(=O)C2=C1C1c3ccccc3C2c2ccccc21 | – | > 95.5 µM | 22.4 µM |
| CCOC(=O)Cc1cc(=O)[nH]n(-c2ccccc2)c1=O | inactive | – | – |
| ClC1=NSC(Cl)=NS1 | – | > 53.7 µM | > 53.7 µM |
| C/C(O)=C(\N=O)C(=O)Nc1ccc(Cl)cc1Cl | – | > 339 µM | 145 µM |
| O=c1c2ccccc2oc2c1ccc1ncccc12 | – | > 200 µM | 6.61 µM |
| CCN(CC)Cc1nc(C2CCC([N+](=O)[O-])O2)no1 (stereo not drawn) | – | > 200 µM | 72.4 µM |
| CCOC(=O)c1cc2c([nH]1)C(=O)CSC1=C2CCN1Cc1ccccc1 | – | > 50.1 µM | 21.9 µM |
| CCCCCCCCCCCCCCCc1cccc(O)c1C(=O)O | inactive | – | – |

| SMILES | outcome | EC50 | IC50 |
| --- | --- | --- | --- |
| Cn1c(-c2cccc(N)c2)[n+](C)c2ccccc21 | – | > 200 µM | 126 µM |
| CCCCCCCCOC1C(O)C(O)C(O)C(O)C12CO2 (stereo not drawn) | – | > 200 µM | 75.9 µM |
| COc1ccc(-c2cc(=O)c3c(O)cc(OC)cc3o2)cc1 | – | 70.8 µM | 74.1 µM |
| CO/N=C(\C([O-])=N\[n+]1cnn(CC(=O)OC(C)(C)C)c1)c1csc(NC(c2ccccc2)(c2ccccc2)c2ccccc2)n1 | – | > 200 µM | 37.2 µM |
| CC(C)C(=O)[O-].CC(C)C(=O)[O-].N.N.N.N.[Co+3].[O-][Cl+3]([O-])([O-])[O-] | inactive | – | – |
| Cc1cccc(C(=O)NCCN(C)C)c1[N+](=O)[O-] | – | > 200 µM | > 200 µM |
| COC(=O)c1ccccc1NC(=O)C(=O)CC(=O)CC(c1ccccc1)c1c(O)c2ccccc2oc1=O (stereo not drawn) | – | > 490 µM | 245 µM |
| O=C(c1c(F)c(F)c(F)c(F)c1F)n1c(=O)[nH]c2ccccc21 | – | > 200 µM | 10.7 µM |
| NC1=NCN2C(=N1)OC1C(O)C(CO)OC12 (stereo not drawn) | – | > 200 µM | > 200 µM |
| O=C(NC(=O)c1ccccc1O)c1ccccc1 | – | > 282 µM | > 282 µM |
| O=C(N/N=C/c1cc(-c2ccccc2Cl)c(-c2ccccc2Cl)o1)c1ccncc1 | – | > 12 µM | > 12 µM |
| O=C(Nc1ccc(Br)cc1)C(=O)C(C(=O)c1ccc(Cl)c(Cl)c1)C1OC(=O)c2ccccc21 (stereo not drawn) | – | > 66.1 µM | 10 µM |
| CS(=O)CC(=O)c1ccccn1 (stereo not drawn) | – | > 200 µM | > 200 µM |
| CCN=C1SC2C(=O)N(C)C(S1)C(=O)N2C | – | > 692 µM | 36.3 µM |
| CCN(CC)CCO/N=C1\CC[C@H]2[C@@H]3CC=C4C[C@@H](O)CC[C@]4(C)[C@H]3CC[C@]12C | – | > 200 µM | 15.5 µM |
| Cc1ccc(S(=O)(=O)OCC2OC(OC3(CO)OC(COS(=O)(=O)c4ccc(C)cc4)C(O)C3O)C(O)C(O)C2O)cc1 (stereo not drawn) | – | > 200 µM | > 200 µM |
| Cc1ccccc1N1C(=O)[N+](C)(C)N=C1[O-] | – | > 1150 µM | > 1150 µM |
| O=S1(=O)NCNc2cc(C(F)(F)F)ccc21 | – | > 1000 µM | 380 µM |
| O=C(CCCN1CCC2(CC1)CC(=O)N(N1CCOCC1)C2=O)c1ccc(F)cc1 | – | > 200 µM | > 200 µM |
| CN(C)c1ccc(C(c2c(O)c3ccc(O)cc3oc2=O)c2c(O)c3ccc(O)cc3oc2=O)cc1 | – | > 200 µM | 30.2 µM |
| COc1ccc(Nc2cc(N)nc(N)n2)c(=S)[nH]1 | – | > 676 µM | 57.5 µM |
